According to patent US9375497B2, “[F-18]-labeled L-glutamic acid, [F-18]-labeled L-glutamine, derivatives thereof and use thereof and processes for their preparation” (BAYER SCHERING PHARMA AKTIENGESELLSCHAFT, priority 2006, dated 2016):

How the values were obtained:
[1] = system: A549 (non-small-cell bronchial carcinoma) cells; assay: Tumor cell uptake in A549 cells; assay type: cell-based, human; details: 250 kBq/well, compared to [^18F]FDG
Experimental: (§1) For the evaluation of the tumor cell uptake of [^18F]glutamic acid, cell uptake experiments were carried out in human A549 (non-small-cell bronchial carcinoma) and HT29 (colonic carcinoma) cells. The tumor cell uptake of the glutamic acid derivatives was compared to
(§2) [^18F]FDG (gold standard for oncological PET investigations).
FIG. 2: Comparison of the time-dependent tumor cell uptake of [^18F]-4-glutamic acid [20-35 μM] (on the left) and [F-18]FDG [2 μM] (on the right) in A549 cells. The cells were incubated with 250 kBq/well. For displacement experiments, L-glutamic acid (1 mM) or glucose (5 mM) was used (mean value±standard deviation, n=3).

[2] = system: HT29 (colonic carcinoma) cells; assay: Tumor cell uptake in HT29 cells; assay type: cell-based, human; details: compared to [^18F]FDG
Experimental: as §1, §2

[3] = system: murine B16F1 melanoma model in C57BI6 mice; assay: Tumor enrichment and tissue distribution, B16F1 melanoma model; details: for Tumor/tissue quotient, Ovary: single i.v.; for Tissue uptake, Brain: single i.v. 111 kBq
Experimental: (§3) For the evaluation of the tumor enrichment and the tissue distribution in experimental animals, [^18F]-4-glutamic acid was tested in a murine F9 teratocarcinoma model in NMRI nude mice and a murine B16F1 melanoma model in C57BI6 mice.
(§4) For this, 1×10^6 cells (F9) or 5×10^5 cells (B16F1) respectively were suspended in 100 μl of phosphate-buffered physiological saline solution and inoculated subcutaneously into the right, rear flank of the corresponding experimental animal species (NMRI for F9 and 057-BI6 for B16F1) (Berndorff et al. Clin. Cancer Res. 2005, 11, 2005). […] [^18F]-4-Glutamic acid (370 kBq, in 100 μl of physiological saline solution) was administered intravenously to the tail vein. After 15; 60 and 120 min in each case, the animals were killed, organ and tumor removed, weighed and measured for radioactive content.

[4] = system: murine F9 teratocarcinoma model in NMRI nude mice; assay: Tumor enrichment and tissue distribution, F9 teratocarcinoma model; details: for Tumor/tissue quotient, Liver: single i.v.
Experimental: as §3
as §4, with “After 15; 60 and 120 min in each case, the animals were killed, organ and tumor removed, weighed and measured for radioactive content.” left out

With NC(CC(OCC[18F])C(=O)O)C(=O)O (centres unmarked) [2-amino-4-(2-[F-18]fluoroethoxy)pentanedicarboxylic acid] the tumor cell uptake [1] was “Analogous uptake results” and the tumor cell uptake [2] was “Analogous uptake results”.
For NC(CC(CCC[18F])C(=O)O)C(=O)O (centres unmarked) [2-amino-4-(3-[F-18]fluoropropyl)pentanedicarboxylic acid], the tumor cell uptake [1] was “Analogous uptake results” and the tumor cell uptake [2] was “Analogous uptake results”.
With N[C@@H](CC[14C](=O)O)C(=O)O [[^14C]5-glutamic acid, reference compound] the “Tumor/tissue quotient, Ovary” value ([3]; 0.25 h (times as Table 7)) was 0.47, the “Tissue uptake, Brain” value ([3]; 0.25 h) was 0.22 % dose/g and the “Tumor/tissue quotient, Ovary” value ([3]; 1.0 h (times as Table 7)) was 1.01. The “Tissue uptake, Brain” value ([3]; 1.0 h) was 0.13 % dose/g, the “Tissue uptake, Brain” value ([3]; 2.0 h) was 0.09 % dose/g and the tumor enrichment ([3]; B16F1 melanoma, 1 h after intravenous administration) was 1.03 % ID/g. For the same molecule, the maximal tumor enrichment ([3]; B16F1 melanoma, "at the same time") was 1.23, the “Tumor/tissue quotient, Liver” value ([4]; 1.0 h (times as Table 5)) was 1.31 and the “Tumor/tissue quotient, Liver” value ([4]; 4.0 h (times as Table 5)) was 1.09. The tumor enrichment ([4]; F9 teratocarcinoma, 1 h after intravenous administration) was 0.98 % ID/g and the maximal tumor enrichment ([4]; F9 teratocarcinoma, similarly early time (30 min)) was 0.81 % ID/g.
For NC(=O)C([18F])CC(N)C(=O)O (centres unmarked) [[^18F]-4-glutamine, 2-amino-4-[F-18]fluoroglutamine], the tumor cell uptake [1] was “Analogous uptake results” and the tumor cell uptake [2] was “Analogous uptake results”.
